Laboratory results taken from patent US20140255392A1 (BAYER INTELLECTUAL PROPERTY GMBH, priority 2011, published 2014).

The compounds below were run against T1, human kinase Mps-1 (Homo sapiens, UniProt P33981) (assay: Mps-1 kinase assay (TR-FRET)). Conditions: N-terminally GST-tagged human full length recombinant Mps-1; 10 μM ATP; 1 μM peptide substrate; 60 min at 22° C.
T1 construct: N-terminally GST-tagged human full length recombinant Mps-1 kinase; GST (N); purchased Invitrogen, Karslruhe, Germany PV4071
T1 sequence (P33981 1-857): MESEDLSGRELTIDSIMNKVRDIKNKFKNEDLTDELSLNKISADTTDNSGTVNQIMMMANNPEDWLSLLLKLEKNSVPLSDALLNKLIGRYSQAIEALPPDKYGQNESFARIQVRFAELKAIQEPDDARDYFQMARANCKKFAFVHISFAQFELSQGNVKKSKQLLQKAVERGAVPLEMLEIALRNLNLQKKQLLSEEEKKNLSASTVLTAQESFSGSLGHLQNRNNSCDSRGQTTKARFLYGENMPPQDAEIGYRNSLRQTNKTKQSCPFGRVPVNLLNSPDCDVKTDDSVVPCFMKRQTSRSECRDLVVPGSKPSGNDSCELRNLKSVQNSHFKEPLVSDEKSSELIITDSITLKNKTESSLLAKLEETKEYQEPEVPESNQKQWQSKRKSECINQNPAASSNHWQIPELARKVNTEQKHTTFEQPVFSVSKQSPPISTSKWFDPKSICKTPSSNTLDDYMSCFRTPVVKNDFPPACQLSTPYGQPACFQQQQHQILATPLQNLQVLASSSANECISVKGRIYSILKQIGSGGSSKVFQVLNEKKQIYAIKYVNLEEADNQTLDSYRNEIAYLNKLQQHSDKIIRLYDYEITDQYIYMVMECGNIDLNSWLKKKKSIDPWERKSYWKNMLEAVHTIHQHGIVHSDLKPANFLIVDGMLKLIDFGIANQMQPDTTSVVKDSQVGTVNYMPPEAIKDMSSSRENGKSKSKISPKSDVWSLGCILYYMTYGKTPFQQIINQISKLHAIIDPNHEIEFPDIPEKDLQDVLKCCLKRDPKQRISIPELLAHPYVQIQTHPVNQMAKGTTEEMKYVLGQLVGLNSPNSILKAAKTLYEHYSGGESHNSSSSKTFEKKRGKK
Assay type: biochemical
Outline: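 Next, Eu-labelled anti-phospho(Ser/Thr) antibody and SA-XLent bind for 1 h at 22° C. Finally, energy transfer quantifies phosphorylated product.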

IC50 [nM]	SMILES
1.8	CCNC(=O)c1ccc(-c2cnc3c(NCCC(F)(F)F)cc(Oc4ccc(OC)c(F)c4)cn23)cc1C [Example 107, N-ethyl-4-{6-(3-fluoro-4-methoxyphenoxy)-8-[(3,3,3-trifluoropropyl)amino]imidazo[1,2-a]pyridin-3-yl}-2-methylbenzamide]
17.8	Cc1cc(-c2cnc3c(NCCC(F)(F)F)cc(Oc4ccc(OCc5ccccc5)cc4)cn23)ccc1C(=O)NC1CC1 [Example 109, 4-{6-[4-(benzyloxy)phenoxy]-8-[(3,3,3-trifluoropropyl)amino]imidazo[1,2-a]pyridin-3-yl}-N-cyclopropyl-2-methylbenzamide]
0.6	Cc1cc(-c2cnc3c(NCCC(F)(F)F)cc(Oc4ccc(O)cc4)cn23)ccc1C(=O)NC1CC1 [Example 110, N-cyclopropyl-4-{6-(4-hydroxyphenoxy)-8-[(3,3,3-trifluoropropyl)amino]imidazo[1,2-a]pyridin-3-yl}-2-methylbenzamide]
5.8	C/C=C/c1cc(NCCC(F)(F)F)c2ncc(-c3ccc(C(=O)NC4CC4)c(C)c3)n2c1 [Example 111, N-cyclopropyl-2-methyl-4-{6-[(1E)-prop-1-en-1-yl]-8-[(3,3,3-trifluoropropyl)amino]imidazo[1,2-a]pyridin-3-yl}benzamide]
9.5	Cc1cc(-c2cnc3c(NCCC(F)(F)F)cc(CCCO)cn23)ccc1C(=O)NC1CC1 [Example 128, N-cyclopropyl-4-{6-(3-hydroxypropyl)-8-[(3,3,3-trifluoropropyl)amino]imidazo[1,2-a]pyridin-3-yl}-2-methylbenzamide]
0.5	Cc1cc(-c2cnc3c(NCCC(F)(F)F)cc(Oc4ccc(O)c(F)c4)cn23)ccc1C(=O)NC1CC1 [Example 129, N-cyclopropyl-4-{6-(3-fluoro-4-hydroxyphenoxy)-8-[(3,3,3-trifluoropropyl)amino]imidazo[1,2-a]pyridin-3-yl}-2-methylbenzamide]
0.9	CNC(=O)c1ccc(-c2cnc3c(NCCC(F)(F)F)cc(Oc4ccc(O)c(F)c4)cn23)cc1C [Example 130, 4-{6-(3-Fluoro-4-hydroxyphenoxy)-8-[(3,3,3-trifluoropropyl)amino]imidazo[1,2-a]pyridin-3-yl}-N,2-dimethylbenzamide]
1.4	CCNC(=O)c1ccc(-c2cnc3c(NCCC(F)(F)F)cc(Oc4ccc(O)c(F)c4)cn23)cc1C [Example 131, N-ethyl-4-{6-(3-fluoro-4-hydroxyphenoxy)-8-[(3,3,3-trifluoropropyl)amino]imidazo[1,2-a]pyridin-3-yl}-2-methylbenzamide]
1.1	Cc1cc(-c2cnc3c(NCCC(F)(F)F)cc(-c4ccccc4O)cn23)ccc1C(=O)NC1CC1 [Example 132, N-cyclopropyl-4-{6-(2-hydroxyphenyl)-8-[(3,3,3-trifluoropropyl)amino]imidazo[1,2-a]pyridin-3-yl}-2-methylbenzamide]
0.5	Cc1cc(-c2cnc3c(NCCC(F)(F)F)cc(Oc4cccc(O)c4)cn23)ccc1C(=O)NC1CC1 [Example 136, N-cyclopropyl-4-{6-(3-hydroxyphenoxy)-8-[(3,3,3-trifluoropropyl)amino]imidazo[1,2-a]pyridin-3-yl}-2-methylbenzamide]
2.2	Cc1cc(-c2cnc3c(NCCC(F)(F)F)cc(Oc4cccc(O)c4)cn23)ccc1C(=O)NC1(C)CC1 [Example 137, 4-{6-(3-Hydroxyphenoxy)-8-[(3,3,3-trifluoropropyl)amino]imidazo[1,2-a]pyridin-3-yl}-2-methyl-N-(1-methylcyclopropyl)benzamide]
1.3	CCNC(=O)c1ccc(-c2cnc3c(NCCC(F)(F)F)cc(Oc4cccc(O)c4)cn23)cc1C [Example 138, N-ethyl-4-{6-(3-hydroxyphenoxy)-8-[(3,3,3-trifluoropropyl)amino]imidazo[1,2-a]pyridin-3-yl}-2-methylbenzamide]
1.1	CNC(=O)c1ccc(-c2cnc3c(NCCC(F)(F)F)cc(Oc4cccc(O)c4)cn23)cc1C [Example 139, 4-{6-(3-Hydroxyphenoxy)-8-[(3,3,3-trifluoropropyl)amino]imidazo[1,2-a]pyridin-3-yl}-N,2-dimethylbenzamide]

The next lines start with the compound.

SMILES	IC50 [nM]
C/C=C/c1cc(NCCC(F)(F)F)c2ncc(-c3ccc(C(=O)NC)c(C)c3)n2c1 [Example 112, N,2-dimethyl-4-{6-[(1E)-prop-1-en-1-yl]-8-[(3,3,3-trifluoropropyl)amino]imidazo[1,2-a]pyridin-3-yl}benzamide]	21.8
C/C=C/c1cc(NCCC(F)(F)F)c2ncc(-c3ccc(C(=O)NCC)c(C)c3)n2c1 [Example 113, N-ethyl-2-methyl-4-{6-[(1E)-prop-1-en-1-yl]-8-[(3,3,3-trifluoropropyl)amino]imidazo[1,2-a]pyridin-3-yl}benzamide]	45.1
C/C=C/c1cc(NCCC(F)(F)F)c2ncc(-c3ccc(C(=O)NC4(C)CC4)c(C)c3)n2c1 [Example 114, 2-Methyl-N-(1-methylcyclopropyl)-4-{6-[(1E)-prop-1-en-1-yl]-8-[(3,3,3-trifluoropropyl)amino]imidazo[1,2-a]pyridin-3-yl}benzamide]	75.3
C/C=C/c1cc(NCCC(F)(F)F)c2ncc(-c3ccc(C(=O)NC4(C#N)CC4)c(C)c3)n2c1 [Example 115, N-(1-cyanocyclopropyl)-2-methyl-4-{6-[(1E)-prop-1-en-1-yl]-8-[(3,3,3-trifluoropropyl)amino]imidazo[1,2-a]pyridin-3-yl}benzamide]	59.4
CNC(=O)c1ccc(-c2cnc3c(NCCC(F)(F)F)cc(/C=C\CO)cn23)cc1C [Example 119, 4-{6-[(1Z)-3-hydroxyprop-1-en-1-yl]-8-[(3,3,3-trifluoropropyl)amino]imidazo[1,2-a]pyridin-3-yl}-N,2-dimethylbenzamide]	54.7
CCNC(=O)c1ccc(-c2cnc3c(NCCC(F)(F)F)cc(/C=C\CO)cn23)cc1C [Example 120, N-ethyl-4-{6-[(12)-3-hydroxyprop-1-en-1-yl]-8-[(3,3,3-trifluoropropyl)amino]imidazo[1,2-a]pyridin-3-yl}-2-methylbenzamide]	42.2
CNC(=O)c1ccc(-c2cnc3c(NCC4CCOCC4)cc(Oc4ccc(OC)c(F)c4)cn23)cc1C [Example 121, 4-{6-(3-Fluoro-4-methoxyphenoxy)-8-[(tetrahydro-2H-pyran-4-ylmethyl)amino]imidazo[1,2-a]pyridin-3-yl}-N,2-dimethylbenzamide]	1.5
CCNC(=O)c1ccc(-c2cnc3c(NCC4CCOCC4)cc(Oc4ccc(OC)c(F)c4)cn23)cc1C [Example 122, N-ethyl-4-{6-(3-fluoro-4-methoxyphenoxy)-8-[(tetrahydro-2H-pyran-4-ylmethyl)amino]imidazo[1,2-a]pyridin-3-yl}-2-methylbenzamide]	1.9
COc1ccc(Oc2cc(NCC3CCOCC3)c3ncc(-c4ccc(C(=O)NC5CC5)c(C)c4)n3c2)cc1F [Example 123, N-cyclopropyl-4-{6-(3-fluoro-4-methoxyphenoxy)-8-[(tetrahydro-2H-pyran-4-ylmethyl)amino]imidazo[1,2-a]pyridin-3-yl}-2-methylbenzamide]	0.8
CNC(=O)c1ccc(-c2cnc3c(NCCC(F)(F)F)cc(CCCO)cn23)cc1C [Example 126, 4-{6-(3-hydroxypropyl)-8-[(3,3,3-trifluoropropyl)amino]imidazo[1,2-a]pyridin-3-yl}-N,2-dimethylbenzamide]	146
CCNC(=O)c1ccc(-c2cnc3c(NCCC(F)(F)F)cc(CCCO)cn23)cc1C [Example 127, N-ethyl-4-{6-(3-hydroxypropyl)-8-[(3,3,3-trifluoropropyl)amino]imidazo[1,2-a]pyridin-3-yl}-2-methylbenzamide]	62.5
CNC(=O)c1ccc(-c2cnc3c(NCCC(F)(F)F)cc(-c4ccccc4O)cn23)cc1C [Example 133, 4-{6-(2-Hydroxyphenyl)-8-[(3,3,3-trifluoropropyl)amino]imidazo[1,2-a]pyridin-3-yl}-N,2-dimethylbenzamide]	12.6
CCNC(=O)c1ccc(-c2cnc3c(NCCC(F)(F)F)cc(-c4ccccc4O)cn23)cc1C [Example 134, N-ethyl-4-{6-(2-hydroxyphenyl)-8-[(3,3,3-trifluoropropyl)amino]imidazo[1,2-a]pyridin-3-yl}-2-methylbenzamide]	13.7
CNC(=O)c1ccc(-c2cnc3c(NCCC(F)(F)F)cc(-c4ccc(C(=O)OC)c(C)c4)cn23)cc1C [Example 140, Methyl 2-methyl-4-{3-[3-methyl-4-(methylcarbamoyl)phenyl]-8-[(3,3,3-trifluoropropyl)amino]imidazo[1,2-a]pyridin-6-yl}benzoate]	36.1
